Here are results for 42 compounds from US20050009834A1, “Azole compounds, process for preparation of the same and use thereof” (priority 2001, published 2005).

One assay concerns Plutella xylostella. The experiment in a line: insecticidal effect for Plutella xylostella (cabbage leaf dip). It counts as in vivo. Particulars: 100 ppm, second-instar larvae, fifth day after, 24° C. How it is done: 1) insecticidal effect for Plutella xylostella One 7 to 8-leave stage foliage leaf of cabbage was cut off and dipped in a pesticidal solution for a few seconds, which was prepared by dissolving 5 mg of test compound (represented by the compound Nos. in the above Examples) in 0.5 ml of acetone containing Tween 20 (trade name) and then diluting it to the prescribed concentration (100 ppm) with Dain water diluted 5000-fold. After drying the pesticidal solution, the leaf was put into an ice cream cup (180 ml), and ten second-instar larvae of Plutella xylostella were set free. The cup was left in a temperature-controlled breeding room (24° C.). On the fifth day after, the number of surviving Plutella xylostella was examined. The rate of dead pests was calculated by the following formula, and the result was shown in table 39. rate of dead pests (%)=(number of dead pests/number of test pests)×100

Another assay deals with Tetranychus urticae. Nature of the assay: acaricidal effect for Tetranychus urticae (spray on string bean). It counts as in vivo. The settings on record: 500 ppm, female imagoes, survivors counted on second and seventh day after treatment, 25° C. As for the experimental part:
2) acaricidal effect for Tetranychus urticae Ten female imagoes Tetranychus urticae were set free on a string bean wherein first leaves had just developed. On the following day, the pesticidal solution, which was prepared by dissolving 5 mg of test compound (represented by the compound Nos. in the above Examples) in 0.5 ml of acetone containing Tween 20 (trade name) and then diluting it to the prescribed concentration (500 ppm) with Dain water diluted 5000-fold, was sprayed with spray gun in the amounts wherein the pesticidal solution dripped. The string bean was left in a temperature-controlled breeding room (25° C.). On the second and seventh day after treatment, the number of surviving Tetranychus urticae was examined. The rate of decrease was calculated by the following formula, and the result was shown in table 40. rate of decrease (%)=(1−(S2/(5.59×(10+(10+S1)/2+S1))))×100 • S1; the number of surviving imagoes on the second day after S2; the number of surviving imagoes on the seventh day after […]

`COc1nc(-c2c(F)cccc2Cl)nn1-c1ccc(COc2ncc(C(F)(F)F)cc2Cl)cc1` [T-46]: the “Rate of dead pests (%)” value with Plutella xylostella stood at 100%. Further, the “Rate of decrease (%)” value in the assay with Tetranychus urticae worked out at 99%. For the compound `COC(=O)c1nc(-c2c(F)cccc2Cl)nn1-c1ccc(COc2ncc(C(F)(F)F)cc2Cl)cc1` [T-143], the “Rate of decrease (%)” value with Tetranychus urticae amounted to 98%.

For the compound `Cc1nc(-c2c(Cl)cc(Cl)cc2Cl)nn1-c1ccc(COc2ncc(C(F)(F)F)cc2Cl)cc1` [T-131], in the assay with Tetranychus urticae, the “Rate of decrease (%)” value is given as 100%. As for `Fc1cccc(F)c1-c1nc(Cl)n(-c2ccc(COc3ncc(C(F)(F)F)cc3Cl)cc2)n1` [T-78], in the assay on Plutella xylostella, the “Rate of dead pests (%)” value was 100%. The “Rate of decrease (%)” value in the assay on Tetranychus urticae is reported as 98%.

In the case of `Cc1nc(-c2c(F)cccc2F)nn1-c1ccc(COc2ccc(C(F)(F)F)cn2)cc1` [T-66], the “Rate of dead pests (%)” value in the assay on Plutella xylostella turned out to be 95%. Consider `Cc1nc(-c2c(F)cccc2Cl)nn1-c1ccc(COc2nnc(C(F)(F)F)s2)cc1` [T-25], for which the “Rate of decrease (%)” value in the assay on Tetranychus urticae is reported as 99%. On the same count and under the same terms, the figure for `C#Cc1nc(-c2c(F)cccc2Cl)nn1-c1ccc(COc2ncc(C(F)(F)F)cc2Cl)cc1` [T-132] is 100%; for `Fc1ccccc1-c1cn(-c2ccc(COc3ncc(C(F)(F)F)cc3Cl)cc2)c(Cl)n1` [I-77] it is 95%; for `O=Cc1nc(-c2ccccc2F)cn1-c1ccc(COc2ncc(C(F)(F)F)cc2Cl)cc1` [I-82] it is 99%. On the same count and under the same terms, with `CC(C)c1nc(-c2c(F)cccc2Cl)nn1-c1ccc(COc2ncc(C(F)(F)F)cc2Cl)cc1` [T-92] the figure was 98%. On to `C=Cc1nc(-c2c(F)cccc2Cl)nn1-c1ccc(COc2ncc(C(F)(F)F)cc2Cl)cc1` [T-106], for which the “Rate of dead pests (%)” value with Plutella xylostella was determined as 100%. In addition, the “Rate of decrease (%)” value in the assay on Tetranychus urticae turned out to be 97%.

`Cc1nc(-c2c(F)cccc2Cl)nn1-c1ccc(Oc2ncc(C(F)(F)F)cc2Cl)cc1` [T-264]: the “Rate of decrease (%)” value in the assay with Tetranychus urticae is on record as 98%.

With `Cc1nc(-c2c(F)cccc2Cl)nn1-c1ccc(COc2ncc(C(F)(F)F)cn2)cc1` [T-139], the “Rate of decrease (%)” value in the assay on Tetranychus urticae came to 97%. For the compound `O=Cc1nc(-c2c(F)cccc2Cl)nn1-c1ccc(COc2ncc(C(F)(F)F)cc2Cl)cc1` [T-107], the “Rate of dead pests (%)” value in the assay with Plutella xylostella is 100%. For the same compound, the “Rate of decrease (%)” value in the assay with Tetranychus urticae turned out to be 100%. As for `Cc1nc(-c2c(F)cccc2Cl)nn1-c1ccc(COc2ncc(C(F)(F)F)cc2Cl)cc1` [T-21, 3-(2-chloro-6-fluorophenyl)-1-[4-(3-chloro-5-trifluoromethylpyridin-2-yloxymethyl)phenyl]-5-methyl-1H-1,2,4-triazole], in the assay on Plutella xylostella, the “Rate of dead pests (%)” value worked out at 100%. Also, the “Rate of decrease (%)” value in the assay on Tetranychus urticae is given as 100%. Regarding `Cc1nc(-c2c(F)cccc2Cl)nn1-c1ccc(COc2ccc(C(F)(F)F)cn2)cc1` [T-17], the “Rate of dead pests (%)” value in the assay with Plutella xylostella is listed as 100%. Regarding `Cc1nc(-c2c(F)cccc2Cl)nn1-c1ccc(C(C)Oc2ncc(C(F)(F)F)cc2Cl)cc1` (racemic) [T-267], the “Rate of dead pests (%)” value in the assay with Plutella xylostella worked out at 100%. The “Rate of decrease (%)” value with Tetranychus urticae is given as 99%.

Regarding `Cc1nc(-c2c(F)cccc2Cl)nn1-c1ccc(COc2ccc(Cl)cc2Cl)cc1` [T-9], the “Rate of dead pests (%)” value with Plutella xylostella stood at 100%. Moreover, the “Rate of decrease (%)” value in the assay on Tetranychus urticae is on record as 99%. For `CCc1nc(-c2c(F)cccc2F)nn1-c1ccc(COc2ncc(C(F)(F)F)cc2Cl)cc1` [T-88], in that order: 95% and 98%. Consider `Cc1nc(-c2c(F)cccc2Cl)nn1-c1ccc(COc2ncc(Cl)cn2)cc1` [T-24], for which the “Rate of decrease (%)” value with Tetranychus urticae is recorded as 97%. Turning to `Fc1cccc(Cl)c1-c1nc(C(F)(F)F)n(-c2ccc(COc3ncc(C(F)(F)F)cc3Cl)cc2)n1` [T-47], the “Rate of dead pests (%)” value with Plutella xylostella was found to be 100%. Moreover, in the assay on Tetranychus urticae, the “Rate of decrease (%)” value is 100%. On to `Cc1nc(-c2c(F)cccc2Cl)nn1-c1ccc(COc2ncc(C(F)(F)F)cc2Cl)cn1` [T-28], for which the “Rate of dead pests (%)” value with Plutella xylostella turned out to be 100%. Besides, in the assay with Tetranychus urticae, the “Rate of decrease (%)” value is reported as 98%. For the compound `Cc1nc(-c2c(F)cccc2C(F)(F)F)nn1-c1ccc(COc2ncc(C(F)(F)F)cc2Cl)cc1` [T-133], the “Rate of dead pests (%)” value in the assay with Plutella xylostella was 95%. In the assay with Tetranychus urticae, the “Rate of decrease (%)” value was 99%. For `Fc1cccc(Cl)c1-c1nc(C(F)F)n(-c2ccc(COc3ncc(C(F)(F)F)cc3Cl)cc2)n1` [T-120], in that order: 100% and 99%. For `Cc1nc(-c2c(F)cccc2Cl)nn1-c1ccc(COc2ccc(Cl)cn2)cc1` [T-18], in that order: 100% and 97%. For `N#Cc1nc(-c2c(F)cccc2Cl)nn1-c1ccc(COc2ncc(C(F)(F)F)cc2Cl)cc1` [T-52], in that order: 100% and 97%. With `Cc1nc(-c2c(F)cccc2Cl)nn1-c1ccc(COc2ccc(C(F)(F)F)cc2Cl)cc1` [T-12], the “Rate of dead pests (%)” value with Plutella xylostella is given as 100%. In addition, the “Rate of decrease (%)” value with Tetranychus urticae was 98%. For `Cc1nc(-c2c(F)cccc2Cl)nn1-c1ccc(COc2ccc(C(F)(F)F)cc2)cc1` [T-5], in that order: 95% and 96%.

Regarding `COc1cccc(OC)c1-c1nc(C)n(-c2ccc(COc3ncc(C(F)(F)F)cc3Cl)cc2)n1` [T-140], the “Rate of decrease (%)” value in the assay on Tetranychus urticae is recorded as 99%. As to `Cc1nc(-c2c(F)ccc(F)c2Cl)nn1-c1ccc(COc2ncc(C(F)(F)F)cc2Cl)cc1` [T-138], the “Rate of decrease (%)” value with Tetranychus urticae is given as 99%. On the same count and under the same terms, with `Fc1cccc(F)c1-c1ncn(-c2ccc(COc3ncc(C(F)(F)F)cc3Cl)cc2)n1` [T-76] the figure was 96%; with `FC(F)(F)c1cnc(OCc2ccc(-n3cnc(-c4cc(Cl)nc(Cl)c4)n3)cc2)c(Cl)c1` [T-75], 99%; with `Cc1nc(-c2cccnc2Cl)nn1-c1ccc(COc2ncc(C(F)(F)F)cc2Cl)cc1` [T-130], 98%. For `FCc1nc(-c2c(F)cccc2Cl)nn1-c1ccc(COc2ncc(C(F)(F)F)cc2Cl)cc1` [T-54], the “Rate of decrease (%)” value in the assay with Tetranychus urticae turned out to be 98%.

On to `Cc1nc(-c2c(F)cccc2Cl)nn1Cc1ccc(COc2ncc(C(F)(F)F)cc2Cl)cc1` [T-172], for which the “Rate of decrease (%)” value in the assay on Tetranychus urticae is reported as 98%. As to `CC1=CN(Cc2ccc(COc3ncc(C(F)(F)F)cc3Cl)cc2)NC(c2c(F)cccc2Cl)=N1` [T-171, 3-(2-chloro-6-fluorophenyl)-1-[4-(3-chloro-5-trifluoromethyl-2-pyridyloxymethyl)phenylmethyl]-5-methyl-1H-1,2,4-triazine], in the assay with Tetranychus urticae, the “Rate of decrease (%)” value was 99%.

On to `Fc1cccc(Cl)c1-c1nc(C2CC2)n(-c2ccc(COc3ncc(C(F)(F)F)cc3Cl)cc2)n1` [T-93], for which, in the assay with Tetranychus urticae, the “Rate of decrease (%)” value is listed as 97%. The same measure, in the same setting: the figure for `Cc1nc(-c2ccccc2OC(F)(F)F)nn1-c1ccc(COc2ncc(C(F)(F)F)cc2Cl)cc1` [T-136] is 99%; for `Cc1nc(-c2c(F)cc(F)cc2F)nn1-c1ccc(COc2ncc(C(F)(F)F)cc2Cl)cc1` [T-135] it is 96%. Take `Fc1cccc(Cl)c1-c1nc(CCl)n(-c2ccc(COc3ncc(C(F)(F)F)cc3Cl)cc2)n1` [T-53]: in the assay on Tetranychus urticae, the “Rate of decrease (%)” value is 99%.

In the case of `Cc1nc(-c2c(F)ccc(Cl)c2F)nn1-c1ccc(COc2ncc(C(F)(F)F)cc2Cl)cc1` [T-137], the “Rate of decrease (%)” value with Tetranychus urticae turned out to be 99%.

Take `Cc1nc(-c2c(F)c(F)cc(F)c2F)nn1-c1ccc(COc2ncc(C(F)(F)F)cc2Cl)cc1` [T-134]: the “Rate of decrease (%)” value with Tetranychus urticae is reported as 100%.
